According to BindingDB's records for doi:10.1021/jm301755q (University Health Network, 2013):

Assays:
[1] = target: Protein-arginine deiminase type-4 (Homo sapiens) (UniProt Q9UM07); test: Inhibition of PAD4 (unknown origin) at 37 degC
[2] = target: Protein-arginine deiminase type-4 (Homo sapiens) (UniProt Q9UM07); test: Inhibition of PAD4 (unknown origin) at 52 degC

Protein-arginine deiminase type-4 (Homo sapiens), sequence (Q9UM07 whole entry, looked up): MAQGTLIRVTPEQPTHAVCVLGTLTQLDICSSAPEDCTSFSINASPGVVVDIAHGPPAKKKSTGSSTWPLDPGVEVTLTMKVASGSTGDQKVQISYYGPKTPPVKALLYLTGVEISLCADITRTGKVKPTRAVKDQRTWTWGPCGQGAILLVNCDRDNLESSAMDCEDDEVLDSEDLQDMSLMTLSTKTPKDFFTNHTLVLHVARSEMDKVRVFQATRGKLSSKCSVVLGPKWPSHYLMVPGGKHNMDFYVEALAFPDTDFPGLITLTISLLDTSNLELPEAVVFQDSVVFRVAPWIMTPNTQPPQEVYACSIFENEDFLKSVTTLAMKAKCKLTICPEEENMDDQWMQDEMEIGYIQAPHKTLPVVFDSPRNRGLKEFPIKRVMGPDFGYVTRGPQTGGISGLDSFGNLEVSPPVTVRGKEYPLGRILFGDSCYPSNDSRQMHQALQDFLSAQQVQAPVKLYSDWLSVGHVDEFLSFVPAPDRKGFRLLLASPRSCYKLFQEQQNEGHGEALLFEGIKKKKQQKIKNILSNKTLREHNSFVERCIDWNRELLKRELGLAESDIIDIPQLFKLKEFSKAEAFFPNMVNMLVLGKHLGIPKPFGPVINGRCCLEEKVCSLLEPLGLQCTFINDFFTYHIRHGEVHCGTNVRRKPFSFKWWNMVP

SMILES	IC50 [1] [µM]	Ki [1] [µM]	IC50 [2] [µM]	Ki [2] [µM]
CC1(C)NC(=O)N(CN2CCNCC2)C1=O	1380	131	4270	371
CC(=NN=C(N)N)C1=CC(C)(C)CCC1	1460	127	790	69
CC1CCc2c(sc3ncn(N)c(=N)c23)C1 (stereo unspecified)	1760	153	757	66
C[C@H]1C(=O)Nc2ccc(-c3csc(N=C(N)N)n3)cc21	1320	115	2650	231
